Earlier results on eight compounds are cited in patent US9006292B2, “Metadichol® liquid and gel nanoparticle formulations” (NanoRx, Inc., priority 2013, dated 2015).

The conditions of data set [1]: topical, phase I trial of 14 patients.
A further data set deals with RDW. As to conditions: 6 months.
The test system of the next data set is Lp(a). Conditions: in vivo.

Where two headings read alike, the source gives them in different places.

Take `C=C1/C(=C\C=C2/CCC[C@]3(C)[C@@H]([C@H](C)CCCC(C)(C)O)CC[C@@H]23)C[C@@H](O)C[C@@H]1O` [1,25-dihydroxycholecalciferol]: the “growth of P. falciparum in culture” value in the data set with P. falciparum (low doses) is “inhibitory”. The “prevention of chemotherapy-induced alopecia” value in data set [1] was “failed to show efficacy”.

On to `C=C1/C(=C\C=C2/CCC[C@]3(C)[C@@H]([C@H](C)CCCC(C)C)CC[C@@H]23)C[C@@H](O)C[C@@H]1O` [1-hydroxy Vitamin D-3], for which the “growth of P. falciparum in culture” value in the data set on P. falciparum (low doses) is “inhibitory”.

Regarding `C=C1CC[C@H](O)C/C1=C/C=C1\CCC[C@]2(C)[C@@H]([C@H](C)CCCC(C)(C)O)CC[C@@H]12` [25-hydroxy vitamin D3], the “growth of P. falciparum in culture” value in the data set with P. falciparum (low doses) is recorded as “inhibitory”.

With `COCCc1ccc(OCC(O)CNC(C)C)cc1` (stereo not drawn) [Metoprolol], the RDW in the data set on RDW (100 mg/day, n=35, from 15.6) is 15.45.

Consider `OC(CNCC(O)C1CCc2cc(F)ccc2O1)C1CCc2cc(F)ccc2O1` (stereo not drawn) [Nebivolol], for which the RDW in the data set on RDW (5 mg/d, n=37, from 15.8) is 15.

On to `C=C1CC[C@H](O)C/C1=C/C=C1\CCC[C@]2(C)[C@@H]([C@H](C)/C=C/[C@H](C)C(C)C)CC[C@@H]12` [vitamin D-2], for which the “growth of P. falciparum in culture” value with P. falciparum (higher levels) is on record as “inhibitory”.

Take `C=C1CC[C@H](O)C/C1=C/C=C1\CCC[C@]2(C)[C@@H]([C@H](C)CCCC(C)C)CC[C@@H]12` [vitamin D-3]: in the data set with P. falciparum (higher levels), the “growth of P. falciparum in culture” value is “inhibitory”.

On to “Human growth hormone: Human growth hormone, cited as raising Lp(a)”, for which the “increase of Lp(a)” value in the data set on Lp(a) is recorded as “up to 120%”.
